Measured values reported in patent publication US10227343B2, “Isoquiniline and napthalene-substituted compounds as mGluR4 allosteric potentiators, compositions, and methods of treating neurological dysfunction” (Vanderbilt University, priority 2015, dated 2019).

Test system: haloperidol induced catalepsy
Assay: reversal of haloperidol induced catalepsy
Type: in vivo, Sprague-Dawley rats
Conditions: rats, haloperidol 1.5 mg/kg i.p., compound 0.1-56.6 mg/kg oral, tested 30 minutes after compound; data in FIG. 5
Method: Animals. Male Sprague-Dawley rats weighing between 275 and 300 g (Harlan Laboratories, Indianapolis, Ind.) were used for the behavioral studies and were maintained in accordance with American Association for the Accreditation of Laboratory Animal Care guidelines under a 12-h light/dark cycle (lights on at 6 AM, lights off at 6 PM) with free access to food and water. The experimental procedures, which were performed during the light cycle, were approved by the Institutional Animal Care and Use Committee of Vanderbilt University and conformed to the guidelines established by the National Research Council Guide for the Care and Use of laboratory Animals. Rats were injected with haloperidol (1.5 mg/kg, i.p., dissolved in 8.5% lactic acid, pH=6) 60 minutes prior to the oral administration of Example 46 ((0.1-56.6 mg/kg) or vehicle (10% Tween 80). 30 minutes after compound administration all rats were tested for catalepsy. Catalepsy was assessed using a horizontal bar placed 6 cm from the testing surface. The forepaws of each rat were placed gently on the bar with the body positioned at an angle of ˜45° to the testing surface. The latency in seconds required for the rat to remove one or both forepaws from the bar was manually measured with a cutoff of 30 seconds.

In the case of `FC(F)(F)c1nccc2cc(Nc3n[nH]c4ncccc34)ccc12` [Example 46, N-(1H-pyrazolo[3,4-b]pyridin-3-yl)-1-(trifluoromethyl) isoquinolin-6-amine], the “reversal of haloperidol induced catalepsy” value is reported as “reversal of haloperidol induced catalepsy”.
